Our source for the IC50 values is the Kinase Knowledgebase extract (Sharma et al. 2016).

The assay concerns the target PIK3CA (human) (UniProt P42336). As to the kind of experiment: Assessment of PIK3CA Kinase Activity.

Chain of PIK3CA (human) (P42336 whole entry, looked up): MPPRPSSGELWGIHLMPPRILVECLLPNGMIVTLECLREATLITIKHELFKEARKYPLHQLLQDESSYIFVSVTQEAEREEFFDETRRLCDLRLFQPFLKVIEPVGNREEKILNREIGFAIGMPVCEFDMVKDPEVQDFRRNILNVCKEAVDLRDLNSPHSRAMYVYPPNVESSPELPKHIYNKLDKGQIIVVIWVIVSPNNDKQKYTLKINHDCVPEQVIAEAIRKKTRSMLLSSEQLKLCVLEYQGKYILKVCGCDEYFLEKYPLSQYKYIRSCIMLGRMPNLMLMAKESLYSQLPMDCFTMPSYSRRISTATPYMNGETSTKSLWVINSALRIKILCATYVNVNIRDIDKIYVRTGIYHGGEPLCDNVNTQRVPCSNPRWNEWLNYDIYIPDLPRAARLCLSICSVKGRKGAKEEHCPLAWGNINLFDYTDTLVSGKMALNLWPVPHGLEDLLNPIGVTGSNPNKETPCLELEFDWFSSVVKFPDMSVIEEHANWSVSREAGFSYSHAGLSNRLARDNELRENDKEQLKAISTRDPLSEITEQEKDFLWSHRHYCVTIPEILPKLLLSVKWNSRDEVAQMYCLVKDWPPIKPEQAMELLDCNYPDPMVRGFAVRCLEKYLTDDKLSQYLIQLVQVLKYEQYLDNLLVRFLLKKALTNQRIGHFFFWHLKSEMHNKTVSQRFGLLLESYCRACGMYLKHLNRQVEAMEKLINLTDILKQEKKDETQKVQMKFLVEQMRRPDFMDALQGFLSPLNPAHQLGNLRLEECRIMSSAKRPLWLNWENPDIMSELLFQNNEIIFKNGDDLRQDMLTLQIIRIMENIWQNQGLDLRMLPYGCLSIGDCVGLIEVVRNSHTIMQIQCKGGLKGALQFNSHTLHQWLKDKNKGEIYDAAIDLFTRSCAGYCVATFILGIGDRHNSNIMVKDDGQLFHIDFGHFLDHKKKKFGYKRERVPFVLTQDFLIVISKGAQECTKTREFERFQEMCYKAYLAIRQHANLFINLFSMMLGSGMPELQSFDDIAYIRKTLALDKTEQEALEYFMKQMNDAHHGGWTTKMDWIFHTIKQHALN

Consider `Nc1nc2c(c(-c3ccc(F)cc3)n1)-c1cc(NS(=O)(=O)c3ccccc3)c(Cl)cc1CC2`, for which the IC50 turned out to be 13 nM. Turning to `Nc1nc2c(c(-c3cccc(F)c3)n1)-c1cc(NS(=O)(=O)c3ccc(F)cc3F)c(Cl)cc1CC2`, the IC50 was determined as 4 nM. Next, `Nc1cccc(-c2nc(N)nc3c2-c2cc(S(=O)(=O)N4CCOCC4)c(Cl)cc2CC3)c1`: 6.3 nM; `NC(=O)c1ccc(-c2nc(N)nc3c2-c2cc(NS(=O)(=O)c4ccc(F)cc4F)c(Cl)cc2CC3)cc1`: 4 nM. As for `Nc1nc2c(c(-c3ccccc3)n1)-c1cc(S(=O)(=O)N3CCOCC3)c(Cl)cc1CC2`, the figure is 3.2 nM; as for `CC(=O)Nc1cccc(-c2nc(N)nc3c2-c2cc(S(=O)(=O)N4CCOCC4)c(Cl)cc2CC3)c1`, 25 nM; as for `Cc1ccc(-c2nc(N)nc3c2-c2cc(S(=O)(=O)N4CCOCC4)c(Cl)cc2CC3)cc1`, 4 nM. Next, `CS(=O)(=O)c1cccc(-c2nc(N)nc3c2-c2cc(NS(=O)(=O)c4ccc(F)cc4F)c(Cl)cc2CC3)c1`: 1.3 nM. With `Nc1nc2c(c(-c3ccccc3F)n1)-c1cc(S(=O)(=O)N3CCOCC3)c(Cl)cc1CC2`, the IC50 is 13 nM.

Regarding `CC(C)S(=O)(=O)Nc1cc2c(cc1Cl)CCc1nc(N)nc(-c3ccccc3)c1-2`, the IC50 was 25 nM. Consider `Nc1nc2c(c(-c3ccccc3)n1)-c1cc(NS(=O)(=O)c3ccccc3)c(Cl)cc1CC2`, for which the IC50 was found to be 13 nM. Molecule `Nc1nc2c(c(-c3ccc(F)cc3)n1)-c1cc(NS(=O)(=O)c3ccc(F)cc3F)c(Cl)cc1CC2` returned an IC50 of 2.5 nM. In the case of `Nc1nc2c(c(-c3cccnc3)n1)-c1cc(S(=O)(=O)N3CCOCC3)c(Cl)cc1CC2`, the IC50 worked out at 20 nM. `CC(=O)Nc1ccc(-c2nc(N)nc3c2-c2cc(NS(=O)(=O)c4ccc(F)cc4F)c(Cl)cc2CC3)cc1` displayed an IC50 of 2.5 nM. As for `CN(C)S(=O)(=O)c1ccc(-c2nc(N)nc3c2-c2cc(NS(=O)(=O)c4ccc(F)cc4F)c(Cl)cc2CC3)cc1`, the figure is 2.5 nM. `Nc1nc2c(c(-c3ccncc3)n1)-c1cc(NS(=O)(=O)c3ccc4ccccc4c3)c(Cl)cc1CC2` showed an IC50 of 405 nM.

Molecule `Nc1nc2c(c(-c3ccncc3)n1)-c1cc(NS(=O)(=O)c3ccc(F)cc3F)c(Cl)cc1CC2` returned an IC50 of 1 nM. Next, `CC(=O)Nc1cccc(-c2nc(N)nc3c2-c2cc(NS(=O)(=O)c4ccc(F)cc4F)c(Cl)cc2CC3)c1`: 16 nM; `CN(C)S(=O)(=O)c1cccc(-c2nc(N)nc3c2-c2cc(NS(=O)(=O)c4ccc(F)cc4F)c(Cl)cc2CC3)c1`: 3.2 nM; `COc1cccc(-c2nc(N)nc3c2-c2cc(NS(=O)(=O)c4ccc(F)cc4F)c(Cl)cc2CC3)c1`: 5 nM.

In turn, `Nc1nc2c(c(=O)[nH]1)-c1ccc(Cl)cc1CC2` gave an IC50 of 5010 nM.

For the molecule `Nc1nc2c(c(-c3ccc(S(=O)(=O)N4CCOCC4)cc3)n1)-c1cc(NS(=O)(=O)c3ccc(F)cc3F)c(Cl)cc1CC2`, the IC50 amounted to 2.5 nM. Next, `Nc1nc2c(c(-c3ccccc3)n1)-c1cc(NC(=O)c3ccc(F)cc3F)c(Cl)cc1CC2`: 1580 nM. Next, `Nc1nc2c(c(-c3ccccc3)n1)-c1cc(NS(=O)(=O)c3ccc(F)cc3F)c(Cl)cc1CC2`: 4 nM; `COc1ccc(-c2nc(N)nc3c2-c2cc(NS(=O)(=O)c4ccc(F)cc4F)c(Cl)cc2CC3)cc1`: 2 nM; `NC(=O)c1cccc(-c2nc(N)nc3c2-c2cc(NS(=O)(=O)c4ccc(F)cc4F)c(Cl)cc2CC3)c1`: 2 nM. The molecule `CC(=O)Nc1ccc(-c2nc(N)nc3c2-c2cc(S(=O)(=O)N4CCOCC4)c(Cl)cc2CC3)cc1` showed an IC50 of 3.2 nM. As for `N#Cc1cccc(S(=O)(=O)Nc2cc3c(cc2Cl)CCc2nc(N)nc(-c4ccncc4)c2-3)c1`, the figure is 313 nM. `Nc1nc2c(c(-c3ccc(F)cc3)n1)-c1cc(S(=O)(=O)N3CCOCC3)c(Cl)cc1CC2` returned a half-maximal inhibitory concentration (IC50) of 6.3 nM. In the case of `Nc1nc2c(c(-c3ccncc3)n1)-c1cc(NS(=O)(=O)c3cccs3)c(Cl)cc1CC2`, the IC50 stood at 3.2 nM. The molecule `CNC(=O)c1ccc(-c2nc(N)nc3c2-c2cc(S(=O)(=O)N4CCOCC4)c(Cl)cc2CC3)cc1` gave an IC50 of 7.9 nM. `CNC(=O)c1ccc(-c2nc(N)nc3c2-c2cc(NS(=O)(=O)c4ccc(F)cc4F)c(Cl)cc2CC3)cc1` showed an IC50 of 1.6 nM. The molecule `Cc1ccc([N+](=O)[O-])cc1S(=O)(=O)Nc1cc2c(cc1Cl)CCc1nc(N)nc(-c3ccncc3)c1-2` gave an IC50 of 202 nM. `Nc1nc2c(c(-c3ccncc3)n1)-c1cc(NS(=O)(=O)c3cccc(Cl)c3)c(Cl)cc1CC2` gave an IC50 of 2.5 nM. As for `CNC(=O)c1cccc(-c2nc(N)nc3c2-c2cc(NS(=O)(=O)c4ccc(F)cc4F)c(Cl)cc2CC3)c1`, the figure is 4 nM; as for `Nc1nc2c(c(-c3ccncc3)n1)-c1cc(NS(=O)(=O)c3ccccc3)c(Cl)cc1CC2`, 6.3 nM. Next, `Nc1nc2c(c(-c3cccc(S(=O)(=O)N4CCOCC4)c3)n1)-c1cc(NS(=O)(=O)c3ccc(F)cc3F)c(Cl)cc1CC2`: 7.9 nM; `N#Cc1ccc(S(=O)(=O)Nc2cc3c(cc2Cl)CCc2nc(N)nc(-c4ccncc4)c2-3)cc1`: 1.6 nM; `Nc1nc2c(c(-c3ccncc3)n1)-c1cc(S(=O)(=O)N3CCOCC3)c(Cl)cc1CC2`: 10 nM.

The molecule `Cn1cc(-c2nc(N)nc3c2-c2cc(NS(=O)(=O)c4ccccc4)c(Cl)cc2CC3)cn1` came in with an IC50 of 5 nM. In the case of `Cn1cc(-c2nc(N)nc3c2-c2cc(NS(=O)(=O)c4ccc(F)cc4F)c(Cl)cc2CC3)cn1`, the IC50 stood at 6.3 nM. Next, `Nc1nc2c(c(-c3ccc(F)cc3)n1)-c1cc(S(N)(=O)=O)c(Cl)cc1CC2`: 1.6 nM. As for `CS(=O)(=O)c1ccc(-c2nc(N)nc3c2-c2cc(NS(=O)(=O)c4ccc(F)cc4F)c(Cl)cc2CC3)cc1`, the figure is 2.5 nM; as for `CC(C)S(=O)(=O)Nc1cc2c(cc1Cl)CCc1nc(N)nc(-c3ccc(F)cc3)c1-2`, 32 nM. The molecule `Nc1nc2c(c(-c3ccccc3)n1)-c1cc(NS(=O)(=O)c3ccoc3)c(Cl)cc1CC2` registered an IC50 of 16 nM. Next, `Nc1nc2c(c(-c3cccnc3)n1)-c1cc(NS(=O)(=O)c3ccc(F)cc3F)c(Cl)cc1CC2`: 20 nM.
